In patent publication US20170135339A1, “COATING FORMULATION FOR SEED AND SURFACE STERILIZATION” (priority 2015, published 2017):

Experiments:
[1] = tested on: Poliovirus type 1 Chat strain
[2] = tested on: HEp-2 cells
[3] = tested on: Human adenovirus type 5 Adenoid 75 strain

In the case of zinc pyrithione, the “Reduction in virus titration” value [1] is reported as “at least 4 log”, the “Reduction ratio in virus titration” value [1] is reported as 4.5 Logarithmic TCID50 and the “Virus titration with disinfectant” value [1] is reported as 1.5 Logarithmic TCID50. The “Cytopathic effect on the cells in the cell culture” value [2] was “showed cytopathic effect”, the “Lowest ratio of zinc pyrithione solution which does not show cytopathic effect” value [2] was 0.01% and the “Activity against the virus” value [3] was 99.9%. The “Reduction in virus titration” value [3] was “at least 4 log”, the “Reduction ratio in virus titration” value [3] was 4.0 Logarithmic TCID50 and the “Virus titration with disinfectant” value [3] was 1.0 Logarithmic TCID50.
